Laboratory results taken from PubChem BioAssay AID2060897 (Molecular Pharmacology Branch, DTP, NCI, 2025).
Blank lines part the entries; values can stand above or below the compound they belong to.

Test system: 966289-007-R4-J1-PDC complex spheroid viability
Experiment: Anticancer human tumor 966289-007-R4-J1-PDC patient-derived pancreatic adenocarcinoma cell line growth inhibition [RAS]
Details: for IC50: curve of first compound; for viability, T/C: stronger effect = lower value
How it was run: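 Multi-cell-type spheroids: tumor cells plus HUVEC endothelial cells and mesenchymal stem cells. RAS-pathway inhibitors were combined with targeted agents, each dosed in half-log steps down from clinical Cmax, or from 10 microM when Cmax was unknown.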

[1] = second compound 0.00316 µM, first compound 0.0316 µM
[2] = second compound 0.00316 µM, first compound 0.1 µM
[3] = second compound 0.00316 µM, first compound 0.316 µM
[4] = second compound 0.00316 µM, first compound 1 µM
[5] = second compound 0.00316 µM, first compound 3.16 µM
[6] = second compound 0.00316 µM, first compound 10 µM
[7] = second compound 0.01 µM, first compound 0.0316 µM
[8] = second compound 0.01 µM, first compound 0.1 µM
[9] = second compound 0.01 µM, first compound 0.316 µM
[10] = second compound 0.01 µM, first compound 1 µM
[11] = second compound 0.01 µM, first compound 3.16 µM
[12] = second compound 0.01 µM, first compound 10 µM
[13] = second compound 0.0316 µM, first compound 0.0316 µM
[14] = second compound 0.0316 µM, first compound 0.1 µM
[15] = second compound 0.0316 µM, first compound 0.316 µM
[16] = second compound 0.0316 µM, first compound 1 µM
[17] = second compound 0.0316 µM, first compound 3.16 µM
[18] = second compound 0.0316 µM, first compound 10 µM
[19] = second compound 0.1 µM, first compound 0.0316 µM
[20] = second compound 0.1 µM, first compound 0.1 µM
[21] = second compound 0.1 µM, first compound 0.316 µM
[22] = second compound 0.1 µM, first compound 1 µM
[23] = second compound 0.1 µM, first compound 3.16 µM
[24] = second compound 0.1 µM, first compound 10 µM
[25] = second compound 0.316 µM, first compound 0.0316 µM
[26] = second compound 0.316 µM, first compound 0.1 µM
[27] = second compound 0.316 µM, first compound 0.316 µM
[28] = second compound 0.316 µM, first compound 1 µM
[29] = second compound 0.316 µM, first compound 3.16 µM
[30] = second compound 0.316 µM, first compound 10 µM
[31] = second compound 1 µM, first compound 0.0316 µM
[32] = second compound 1 µM, first compound 0.1 µM
[33] = second compound 1 µM, first compound 0.316 µM
[34] = second compound 1 µM, first compound 1 µM
[35] = second compound 1 µM, first compound 3.16 µM
[36] = second compound 1 µM, first compound 10 µM
[37] = second compound 0.00316 µM, first compound 0.00316 µM
[38] = second compound 0.00316 µM, first compound 0.01 µM
[39] = second compound 0.01 µM, first compound 0.00316 µM
[40] = second compound 0.01 µM, first compound 0.01 µM
[41] = second compound 0.0316 µM, first compound 0.00316 µM
[42] = second compound 0.0316 µM, first compound 0.01 µM
[43] = second compound 0.1 µM, first compound 0.00316 µM
[44] = second compound 0.1 µM, first compound 0.01 µM
[45] = second compound 0.316 µM, first compound 0.00316 µM
[46] = second compound 0.316 µM, first compound 0.01 µM
[47] = second compound 1 µM, first compound 0.00316 µM
[48] = second compound 1 µM, first compound 0.01 µM
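Further: spheroids exposed to agents for one week before readout.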
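Wherever viability, T/C is given: percent viability relative to DMSO vehicle control wells as 100%.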

IC50 (second compound 0.00316 µM): 5590 nM
IC50 (second compound 0.01 µM): 5170 nM
IC50 (second compound 0.0316 µM): 5850 nM
IC50 (second compound 0.1 µM): 5450 nM
IC50 (second compound 0.316 µM): 5980 nM
IC50 (second compound 1 µM): 5350 nM
SMILES: CC(C)NCC(C(=O)N1CCN(c2ncnc3c2C(C)CC3O)CC1)c1ccc(Cl)cc1 (stereo not given) + C=CC(=O)N1CCN(c2nc(OCC3CCCN3C)nc3c(F)c(-c4nc(N)cc(C)c4C(F)(F)F)c(Cl)cc23)C(C)C1
viability, T/C [1]: 99.8%
viability, T/C [2]: 85.1%
viability, T/C [3]: 112%
viability, T/C [4]: 101%
viability, T/C [5]: 70.1%
viability, T/C [6]: 29.5%
viability, T/C [7]: 105%
viability, T/C [8]: 96.7%
viability, T/C [9]: 118%
viability, T/C [10]: 99.5%
viability, T/C [11]: 61.9%
viability, T/C [12]: 34.3%
viability, T/C [13]: 99.7%
viability, T/C [14]: 110%
viability, T/C [15]: 126%
viability, T/C [16]: 104%
viability, T/C [17]: 67.2%
viability, T/C [18]: 35.1%
viability, T/C [19]: 116%
viability, T/C [20]: 104%
viability, T/C [21]: 132%
viability, T/C [22]: 110%
viability, T/C [23]: 63.2%
viability, T/C [24]: 35.4%
viability, T/C [25]: 106%
viability, T/C [26]: 97.1%
viability, T/C [27]: 127%
viability, T/C [28]: 107%
viability, T/C [29]: 67.5%
viability, T/C [30]: 35.9%
viability, T/C [31]: 101%
viability, T/C [32]: 95.8%
viability, T/C [33]: 115%
viability, T/C [34]: 90.1%
viability, T/C [35]: 62.9%
viability, T/C [36]: 35.5%

IC50 (second compound 0.00316 µM): 36.3 nM
IC50 (second compound 0.01 µM): 32.9 nM
IC50 (second compound 0.0316 µM): 43.7 nM
IC50 (second compound 0.1 µM): 34.6 nM
IC50 (second compound 0.316 µM): 51.5 nM
IC50 (second compound 1 µM): 29.2 nM
SMILES: CC(C)n1nc(-c2ccc3oc(N)nc3c2)c2c(N)ncnc21 + C=CC(=O)N1CCN(c2nc(OCC3CCCN3C)nc3c(F)c(-c4nc(N)cc(C)c4C(F)(F)F)c(Cl)cc23)C(C)C1
viability, T/C (second compound 0.00316 µM, first compound 0.000316 µM): 116%
viability, T/C (second compound 0.00316 µM, first compound 0.001 µM): 83.6%
viability, T/C [37]: 111%
viability, T/C [38]: 105%
viability, T/C [1]: 54.5%
viability, T/C [2]: 17.7%
viability, T/C (second compound 0.01 µM, first compound 0.000316 µM): 110%
viability, T/C (second compound 0.01 µM, first compound 0.001 µM): 108%
viability, T/C [39]: 112%
viability, T/C [40]: 94.2%
viability, T/C [7]: 51.5%
viability, T/C [8]: 19.6%
viability, T/C (second compound 0.0316 µM, first compound 0.000316 µM): 123%
viability, T/C (second compound 0.0316 µM, first compound 0.001 µM): 113%
viability, T/C [41]: 121%
viability, T/C [42]: 101%
viability, T/C [13]: 62.5%
viability, T/C [14]: 18.9%
viability, T/C (second compound 0.1 µM, first compound 0.000316 µM): 103%
viability, T/C (second compound 0.1 µM, first compound 0.001 µM): 97.3%
viability, T/C [43]: 106%
viability, T/C [44]: 106%
viability, T/C [19]: 52.4%
viability, T/C [20]: 21.1%
viability, T/C (second compound 0.316 µM, first compound 0.000316 µM): 103%
viability, T/C (second compound 0.316 µM, first compound 0.001 µM): 82.2%
viability, T/C [45]: 132%
viability, T/C [46]: 116%
viability, T/C [25]: 68.4%
viability, T/C [26]: 24.9%
viability, T/C (second compound 1 µM, first compound 0.000316 µM): 92.5%
viability, T/C (second compound 1 µM, first compound 0.001 µM): 102%
viability, T/C [47]: 111%
viability, T/C [48]: 91.9%
viability, T/C [31]: 47.1%
viability, T/C [32]: 20.3%

IC50 (second compound 0.00316 µM): > 10000 nM
IC50 (second compound 0.01 µM): > 10000 nM
IC50 (second compound 0.0316 µM): > 10000 nM
IC50 (second compound 0.1 µM): > 10000 nM
IC50 (second compound 0.316 µM): > 10000 nM
IC50 (second compound 1 µM): > 10000 nM
SMILES: CC(Nc1ccc2c(c1)OCCn1cc(N3C(=O)OCC3C(F)F)nc1-2)C(N)=O (stereo not given) + C=CC(=O)N1CCN(c2nc(OCC3CCCN3C)nc3c(F)c(-c4nc(N)cc(C)c4C(F)(F)F)c(Cl)cc23)C(C)C1
viability, T/C [1]: 96.2%
viability, T/C [2]: 103%
viability, T/C [3]: 96.3%
viability, T/C [4]: 96.4%
viability, T/C [5]: 101%
viability, T/C [6]: 86.1%
viability, T/C [7]: 89.8%
viability, T/C [8]: 112%
viability, T/C [9]: 115%
viability, T/C [10]: 102%
viability, T/C [11]: 97.4%
viability, T/C [12]: 86.9%
viability, T/C [13]: 99.8%
viability, T/C [14]: 110%
viability, T/C [15]: 114%
viability, T/C [16]: 111%
viability, T/C [17]: 93.2%
viability, T/C [18]: 84.1%
viability, T/C [19]: 95.8%
viability, T/C [20]: 111%
viability, T/C [21]: 115%
viability, T/C [22]: 115%
viability, T/C [23]: 88.3%
viability, T/C [24]: 93.3%
viability, T/C [25]: 96.6%
viability, T/C [26]: 101%
viability, T/C [27]: 117%
viability, T/C [28]: 117%
viability, T/C [29]: 103%
viability, T/C [30]: 98.7%
viability, T/C [31]: 99.8%
viability, T/C [32]: 110%
viability, T/C [33]: 112%
viability, T/C [34]: 87.1%
viability, T/C [35]: 96.5%
viability, T/C [36]: 83.2%

IC50 (second compound 0.00316 µM): > 10000 nM
IC50 (second compound 0.01 µM): > 10000 nM
IC50 (second compound 0.0316 µM): > 10000 nM
IC50 (second compound 0.1 µM): > 10000 nM
IC50 (second compound 0.316 µM): > 10000 nM
IC50 (second compound 1 µM): > 10000 nM
SMILES: C[C@@H](NC(=O)c1ncnc(N)c1Cl)c1ncc(C(=O)Nc2cc(C(F)(F)F)c(Cl)cn2)s1 + C=CC(=O)N1CCN(c2nc(OCC3CCCN3C)nc3c(F)c(-c4nc(N)cc(C)c4C(F)(F)F)c(Cl)cc23)C(C)C1
viability, T/C [1]: 123%
viability, T/C [2]: 117%
viability, T/C [3]: 115%
viability, T/C [4]: 119%
viability, T/C [5]: 128%
viability, T/C [6]: 76.2%
viability, T/C [7]: 112%
viability, T/C [8]: 116%
viability, T/C [9]: 122%
viability, T/C [10]: 109%
viability, T/C [11]: 119%
viability, T/C [12]: 100%
viability, T/C [13]: 120%
viability, T/C [14]: 113%
viability, T/C [15]: 118%
viability, T/C [16]: 128%
viability, T/C [17]: 127%
viability, T/C [18]: 86.2%
viability, T/C [19]: 116%
viability, T/C [20]: 119%
viability, T/C [21]: 123%
viability, T/C [22]: 123%
viability, T/C [23]: 116%
viability, T/C [24]: 111%
viability, T/C [25]: 115%
viability, T/C [26]: 107%
viability, T/C [27]: 130%
viability, T/C [28]: 125%
viability, T/C [29]: 116%
viability, T/C [30]: 118%
viability, T/C [31]: 101%
viability, T/C [32]: 103%
viability, T/C [33]: 120%
viability, T/C [34]: 128%
viability, T/C [35]: 134%
viability, T/C [36]: 94.1%

IC50 (second compound 0.00316 µM): 509 nM
IC50 (second compound 0.01 µM): 618 nM
IC50 (second compound 0.0316 µM): 648 nM
IC50 (second compound 0.1 µM): 570 nM
IC50 (second compound 0.316 µM): 740 nM
IC50 (second compound 1 µM): 694 nM
SMILES: O=C(c1ccc(F)c(F)c1Nc1ccc(I)cc1F)N1CC(O)([C@@H]2CCCCN2)C1 + C=CC(=O)N1CCN(c2nc(OCC3CCCN3C)nc3c(F)c(-c4nc(N)cc(C)c4C(F)(F)F)c(Cl)cc23)C(C)C1
viability, T/C [37]: 98.1%
viability, T/C [38]: 87.5%
viability, T/C [1]: 77.2%
viability, T/C [2]: 72.3%
viability, T/C [3]: 63.5%
viability, T/C [4]: 36.4%
viability, T/C [39]: 78.5%
viability, T/C [40]: 80.9%
viability, T/C [7]: 71.2%
viability, T/C [8]: 75.8%
viability, T/C [9]: 62.9%
viability, T/C [10]: 40.3%
viability, T/C [41]: 94.6%
viability, T/C [42]: 75.3%
viability, T/C [13]: 76.3%
viability, T/C [14]: 70.3%
viability, T/C [15]: 66.5%
viability, T/C [16]: 40.8%
viability, T/C [43]: 95.9%
viability, T/C [44]: 70.3%
viability, T/C [19]: 85.1%
viability, T/C [20]: 72.2%
viability, T/C [21]: 63.5%
viability, T/C [22]: 38.2%
viability, T/C [45]: 84%
viability, T/C [46]: 82.6%
viability, T/C [25]: 78.6%
viability, T/C [26]: 76.2%
viability, T/C [27]: 68%
viability, T/C [28]: 43.6%
viability, T/C [47]: 70.2%
viability, T/C [48]: 71.1%
viability, T/C [31]: 71.3%
viability, T/C [32]: 77.2%
viability, T/C [33]: 63.5%
viability, T/C [34]: 42.7%
